Laboratory results as given in patent US8329904B2, “Azacyclic derivatives” (Hoffmann-La Roche Inc., priority 2009, dated 2012).

What follows are compounds tested against T1, human HSL (Homo sapiens, UniProt Q05469) (assay: Human Hormone-Sensitive Lipase (HSL) Enzyme Inhibition Assay). Details: colorimetric assay, 2,3-dimercapto-1-propanol tributyrate (DMPT) substrate, 37° C. for 20 minutes, absorbance at 405 nm; read-out: HSL hum IC50.
T1 construct: overlapping PCR to generate a full length human HSL ORF with a 3′-His6 tag; His6 (C); made in house; host or cells: High 5 insect cells (baculovirus, pFast-BAC)
T1 sequence (Q05469 1-1076): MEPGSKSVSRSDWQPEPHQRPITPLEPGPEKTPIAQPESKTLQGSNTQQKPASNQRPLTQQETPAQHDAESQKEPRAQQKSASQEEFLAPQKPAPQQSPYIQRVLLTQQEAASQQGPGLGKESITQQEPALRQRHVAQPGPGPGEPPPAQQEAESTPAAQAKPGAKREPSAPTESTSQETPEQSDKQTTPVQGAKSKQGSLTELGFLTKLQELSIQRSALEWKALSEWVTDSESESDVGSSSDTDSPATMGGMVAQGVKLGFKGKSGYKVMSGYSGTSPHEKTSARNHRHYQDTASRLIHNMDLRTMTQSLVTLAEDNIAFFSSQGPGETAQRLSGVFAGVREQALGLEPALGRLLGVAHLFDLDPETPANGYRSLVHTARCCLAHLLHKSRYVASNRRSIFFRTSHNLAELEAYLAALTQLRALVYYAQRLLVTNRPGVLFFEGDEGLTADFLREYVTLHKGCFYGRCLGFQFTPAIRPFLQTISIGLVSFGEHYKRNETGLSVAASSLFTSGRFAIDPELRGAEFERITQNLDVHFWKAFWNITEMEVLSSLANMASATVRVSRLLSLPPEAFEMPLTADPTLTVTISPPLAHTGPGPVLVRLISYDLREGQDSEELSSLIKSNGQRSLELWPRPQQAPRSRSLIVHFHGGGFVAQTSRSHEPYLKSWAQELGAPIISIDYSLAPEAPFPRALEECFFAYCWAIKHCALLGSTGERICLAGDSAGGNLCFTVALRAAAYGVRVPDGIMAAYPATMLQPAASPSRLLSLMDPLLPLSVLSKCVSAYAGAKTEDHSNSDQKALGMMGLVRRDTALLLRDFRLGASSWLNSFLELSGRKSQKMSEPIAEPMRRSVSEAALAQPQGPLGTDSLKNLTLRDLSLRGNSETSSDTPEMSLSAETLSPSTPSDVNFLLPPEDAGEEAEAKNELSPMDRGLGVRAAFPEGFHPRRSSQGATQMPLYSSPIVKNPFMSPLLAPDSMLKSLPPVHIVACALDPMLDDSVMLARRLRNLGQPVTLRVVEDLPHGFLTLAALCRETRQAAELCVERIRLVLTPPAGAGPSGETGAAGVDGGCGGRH
Assay type: biochemical
Procedure, shortened: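 Colorimetric thioester hydrolysis: compounds in DMSO series mixed with DMPT (1.5 mM) in MOPS pH 7.2 with BSA, then baculovirus-expressed His6-tagged full-length human HSL added, 37° C, 20 min. DTNB plus detergents added, 15 min room temperature, absorbance at 405 nm.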

`CC(C)(C)CS(=O)(=O)N1CCC2(CCN(c3ccc(OCCC(F)(F)F)cc3)C2=O)CC1` [Example 139, 8-(Neopentylsulfonyl)-2-(4-(3,3,3-trifluoropropoxy)phenyl)-2,8-diazaspiro[4.5]decan-1-one] and `CC(C)(C)CC(=O)N1CCC2(CC1)CCN(c1ccc(C(O)C(F)(F)F)cc1)C2=O` (centres unmarked) [Example 165, 8-(3,3-Dimethyl-butyryl)-2-[4-(2,2,2-trifluoro-1-hydroxy-ethyl)-phenyl]-2,8-diaza-spiro[4.5]decan-1-one] are within 1.5-fold of each other in IC50: 310 nM for the first, 220 nM for the second.

First: CS(=O)(=O)c1ccc(N2CCC3(CCN(S(=O)(=O)c4ccccc4Cl)CC3)C2=O)cc1 [Example 140, 8-(2-Chloro-benzenesulfonyl)-2-(4-methanesulfonyl-phenyl)-2,8-diaza-spiro[4.5]decan-1-one]
Second: CCS(=O)(=O)c1ccc(N2CCC3(CCN(S(=O)(=O)c4ccccc4Cl)CC3)C2=O)cc1 [Example 156, 8-(2-Chloro-benzenesulfonyl)-2-(4-ethanesulfonyl-phenyl)-2,8-diaza-spiro[4.5]decan-1-one]
The IC50 of the first is 1.5-fold lower: 40 nM for the first, 60 nM for the second.

Compared with `O=C1N(c2ccc(CO)cc2)CCC12CCN(S(=O)(=O)c1ccccc1Cl)CC2` [Example 141, 8-(2-Chloro-benzenesulfonyl)-2-(4-hydroxymethyl-phenyl)-2,8-diaza-spiro[4.5]decan-1-one], `COCc1ccc(N2CCC3(CCN(S(=O)(=O)c4ccccc4Cl)CC3)C2=O)cc1` [Example 142, 8-(2-Chloro-benzenesulfonyl)-2-(4-methoxymethyl-phenyl)-2,8-diaza-spiro[4.5]decan-1-one] is 9-fold lower in IC50: 360 nM for the first, 40 nM for the second. The second is the more potent here.

Compared with `CCc1ccc(N2CCC3(CCN(S(=O)(=O)c4ccccc4N4CCCC4=O)CC3)C2=O)cc1` [Example 143, 2-(4-Ethyl-phenyl)-8-[2-(2-oxo-pyrrolidin-1-yl)-benzenesulfonyl]-2,8-diaza-spiro[4.5]decan-1-one], `CCOCc1ccc(N2CCC3(CCN(S(=O)(=O)c4ccccc4Cl)CC3)C2=O)cc1` [Example 149, 8-(2-Chloro-benzenesulfonyl)-2-(4-ethoxymethyl-phenyl)-2,8-diaza-spiro[4.5]decan-1-one] is 4.2-fold lower in IC50: 170 nM for the first, 40 nM for the second. The second is the more potent here.

Going from `COC/C=C/c1ccc(N2CCC3(CCN(S(=O)(=O)c4ccccc4OC(F)(F)F)CC3)C2=O)cc1` [Example 144, 2-[4-((E)-3-Methoxy-propenyl)-phenyl]-8-(2-trifluoromethoxy-benzenesulfonyl)-2,8-diaza-spiro[4.5]decan-1-one] to `O=C1N(c2ccc(/C=C/C3CC3)cc2)CCC12CCN(S(=O)(=O)c1ccccc1OC(F)(F)F)CC2` [Example 145, 2-[4-((E)-2-Cyclopropyl-vinyl)-phenyl]-8-(2-trifluoromethoxy-benzenesulfonyl)-2,8-diaza-spiro[4.5]decan-1-one], the IC50 rises from 50 nM to 120 nM (2.4-fold). The first is the more potent here.

`COCCCc1ccc(N2CCC3(CCN(S(=O)(=O)c4ccccc4OC(F)(F)F)CC3)C2=O)cc1` [Example 146, 2-[4-(3-Methoxy-propyl)-phenyl]-8-(2-trifluoromethoxy-benzenesulfonyl)-2,8-diaza-spiro[4.5]decan-1-one] and `O=C1N(c2ccc(CCC3CC3)cc2)CCC12CCN(S(=O)(=O)c1ccccc1OC(F)(F)F)CC2` [Example 147, 2-[4-(2-Cyclopropyl-ethyl)-phenyl]-8-(2-trifluoromethoxy-benzenesulfonyl)-2,8-diaza-spiro[4.5]decan-1-one] are within 1.5-fold of each other in IC50: 50 nM for the first, 60 nM for the second.

First: O=C1N(c2ccc(COCC3CC3)cc2)CCC12CCN(S(=O)(=O)c1ccccc1Cl)CC2 [Example 148, 8-(2-Chloro-benzenesulfonyl)-2-(4-cyclopropylmethoxymethyl-phenyl)-2,8-diaza-spiro[4.5]decan-1-ones]
Second: CCOCc1ccc(N2CCCC3(CCN(S(=O)(=O)c4ccccc4Cl)CC3)C2=O)cc1 [Example 159, 9-(2-Chloro-benzenesulfonyl)-2-(4-ethoxymethyl-phenyl)-2,9-diaza-spiro[5.5]undecan-1-one]
The IC50 of the first is 3.3-fold lower: 90 nM for the first, 300 nM for the second. The first is the more potent here.

`COC(=O)c1ccc(N2CCC3(CCN(S(=O)(=O)c4ccccc4Cl)CC3)C2=O)cc1` [Example 150, 8 4-[8-(2-Chloro-benzenesulfonyl)-1-oxo-2,8-diaza-spiro[4.5]dec-2-yl]-benzoic acid methyl ester] and `CC(=O)c1ccc(N2CCC3(CCN(S(=O)(=O)c4ccccc4Cl)CC3)C2=O)cc1` [Example 151, 2-(4-Acetyl-phenyl)-8-(2-chloro-benzenesulfonyl)-2,8-diaza-spiro[4.5]decan-1-one] are within 1.5-fold of each other in IC50: 40 nM for the first, 50 nM for the second.

Going from `O=C1N(c2ccc(C(O)C(F)(F)F)cc2)CCC12CCN(S(=O)(=O)c1ccccc1Cl)CC2` (centres unmarked) [Example 152, 8-(2-Chloro-benzenesulfonyl)-2-[4-(2,2,2-trifluoro-1-hydroxy-ethyl)-phenyl]-2,8-diaza-spiro[4.5]decan-1-one] to `CC(O)c1ccc(N2CCC3(CCN(S(=O)(=O)c4ccccc4Cl)CC3)C2=O)cc1` (centres unmarked) [Example 153, 8-(2-Chloro-benzenesulfonyl)-2-[4-(1-hydroxy-ethyl)-phenyl]-2,8-diaza-spiro[4.5]decan-1-one], the IC50 rises from 20 nM to 100 nM (5-fold).

Going from `O=C1N(c2cc(C(F)(F)F)ccc2Cl)CCC12CCN(S(=O)(=O)c1ccccc1Cl)CC2` [Example 154, 8-(2-Chloro-benzenesulfonyl)-2-(2-chloro-5-trifluoromethyl-phenyl)-2,8-diaza-spiro[4.5]decan-1-one] to `O=C1N(c2ccc(C(F)(F)F)cc2)CCCC12CCN(S(=O)(=O)c1ccccc1Cl)CC2` [Example 158, 9-(2-Chloro-benzenesulfonyl)-2-(4-trifluoromethyl-phenyl)-2,9-diaza-spiro[5.5]undecan-1-one], the IC50 falls from 210 nM to 120 nM (1.8-fold). The second is the more potent here.

Compared with `CC(O)(c1ccc(N2CCC3(CCN(S(=O)(=O)c4ccccc4Cl)CC3)C2=O)cc1)C(F)(F)F` (centres unmarked) [Example 155, 8-(2-Chloro-benzenesulfonyl)-2-[4-(2,2,2-trifluoro-1-hydroxy-1-methyl-ethyl)-phenyl]-2,8-diaza-spiro[4.5]decan-1-one], `O=C1N(c2ccc(C(O)(C(F)(F)F)C(F)(F)F)cc2)CCC12CCN(S(=O)(=O)c1ccccc1Cl)CC2` [Example 157, 8-(2-Chloro-benzenesulfonyl)-2-[4-(2,2,2-trifluoro-1-hydroxy-1-trifluoromethyl-ethyl)-phenyl]-2,8-diaza-spiro[4.5]decan-1-one] is 2-fold higher in IC50: 20 nM for the first, 40 nM for the second. The first is the more potent here.

Going from `CC(C)NC(=O)c1ccc(N2CCC3(CCN(S(=O)(=O)c4ccccc4Cl)CC3)C2=O)cc1` [Example 160, 4-[8-(2-Chloro-benzenesulfonyl)-1-oxo-2,8-diaza-spiro[4.5]dec-2-yl]-N-isopropyl-benzamide] to `CC(C)N(C)C(=O)c1ccc(N2CCC3(CCN(S(=O)(=O)c4ccccc4Cl)CC3)C2=O)cc1` [Example 161, 4-[8-(2-Chloro-benzenesulfonyl)-1-oxo-2,8-diaza-spiro[4.5]dec-2-yl]-N-isopropyl-N-methyl-benzamide], the IC50 falls from 900 nM to 380 nM (2.4-fold). The second is the more potent here.

First: O=C1N(c2ccc(C(O)C(F)(F)F)cc2)CCC12CCN(S(=O)(=O)c1ccccc1OC(F)(F)F)CC2 (centres unmarked) [Example 163, 2-[4-(2,2,2-Trifluoro-1-hydroxy-ethyl)-phenyl]-8-(2-trifluoromethoxy-benzenesulfonyl)-2,8-diaza-spiro[4.5]decan-1-one]
Second: Cc1noc(C)c1S(=O)(=O)N1CCC2(CCN(c3ccc(C(F)(F)F)cc3)C2=O)CC1 [Example 164, 8-(3,5-Dimethyl-isoxazole-4-sulfonyl)-2-(4-trifluoromethyl-phenyl)-2,8-diaza-spiro[4.5]decan-1-one]
The IC50 of the first is 14-fold lower: 20 nM for the first, 280 nM for the second. The first is the more potent here.
